Source: patent US12485104B2, “Amino acid derivatives containing a disulfanyl group as an inhibitor of NEP and APN for the prevention and treatment of trigeminal nerve pain” (KOS THERAPEUTICS, INC., priority 2018, dated 2025)

Columns and labels:
[1] = tested on: SJL mice, EAE model (hyperalgesia); test: Tail immersion test in multiple sclerosis model (experimental autoimmune encephalomyelitis, EAE); format: in vivo; conditions: for Nociceptive threshold (tail withdrawal latency time): 20 min after administration, 48° C. bath
Excerpt: The multiple sclerosis model can be induced in SJL mice, female albino white mice, by the administration of an emulsion made up of a myeline fragment and complete Freund® adjuvant (Aicher et al., Pain (2004), 110: 560-570). Central nervous system inflammation appears at the end of around ten days=experimental autoimmune encephalomyelitis, or EAE.
Female SJL mice, purchased from Charles River Laboratories, arrive at the age of 5 weeks and are immunized at the age of 6 weeks. Each mouse receives, under mask anesthesia (2% isoflurane), an emulsion of a volume of 200 μL in the left flank, containing 150 μg of PLP139-151 (Proteolipid Protein Myelin, fragment 139-151) in 100 μL of sterile 0.9% NaCl as well as 100 μL of incomplete Freund® adjuvant (Sigma) completed by inactivated Mycobacterium tuberculosis (Difco, USA) at 4 mg/mL=complete adjuvant.
The symptoms of the disease are reported between D10 and D15, which is reflected by an acute phase, during which scores are high and the animals present a loss of pain sensitivity. This phase precedes a chronic phase which starts around D18 and is characterized by stabilization of the animals general condition and the onset of a significant lowering in the pain perception threshold (hyperalgic state) (Aicher et al., Pain (2004), 110: 560-570).
Nociceptive thresholds were determined from D12 by the tail immersion test.
Compound 1 is administered IP (intraperitoneally) at 50 mg/kg and 100 mg/kg in a EtOH/Tween 80/Water carrier (10/10/80) (100 μL per 10 g of mice). The measurement of time of tail withdrawal from a 48° C. bath is done at 20 min after injection (cut-off=10 sec).

[2] = tested on: rats, migraine model induced by repeated injection of isosorbide dinitrate (ISDN); test: Persistent cephalic allodynia induced by recurrent ISDN (chronic migraine), von Frey test, IV treatment; format: in vivo; conditions: 20 mg/kg intravenously (FIG. 2)
Method: The effects of systemic administration of compound 1 on mechanical cephalic allodynia were tested in rats in a migraine model induced by repeated systemic injection of an NO donor, isosorbide dinitrate (ISDN). Indeed, the powerful vasodilating action of “NO donors” explains their particular propensity to trigger headache in healthy subjects and migraine attacks in migraine patients (Hansen & Olesen, Cephalalgia (2017), 37: 11-19).
The experiments were conducted on male Sprague-Dawley CD rats (200-250 g, Charles River Laboratories). A minimum delay of 7 days was respected before any experimentation. […]
(§1) The mechanical sensitivity of the periorbital region was measured by the von Frey test, which consists of applying a range of von Frey filaments in this region, calibrated to exert a constant force (expressed in grams) to determine the force (threshold) that leads to a head withdrawal reaction. […] The rats then received successive intraperitoneal injections of ISDN (10 mg/kg) and cutaneous sensitivity was assessed by means of the von Frey test. […] On the day of the experiment, the forces exerted by the von Frey filaments that led to head withdrawal were measured in each rat under controlled conditions every 30 minutes for 4 hours. […]

[3] = tested on: rats, migraine model induced by single injection of isosorbide dinitrate (ISDN); test: Mechanical cephalic allodynia induced by single ISDN (acute migraine), von Frey test, oral treatment; format: in vivo; conditions: 50 mg/kg orally (FIG. 3)
Method: The effects of systemic administration of compound 1 on mechanical cephalic allodynia were tested in rats in a migraine model induced by single systemic injection of an NO donor, isosorbide dinitrate (ISDN). Indeed, the powerful vasodilating action of “NO donors” explains their particular propensity to trigger headache in healthy subjects and migraine attacks in migraine patients (Hansen & Olesen, Cephalalgia (2017), 37: 11-19).
The experiments were conducted on male Sprague-Dawley CD rats (200-250 g, Charles River Laboratories). A minimum delay of 7 days was respected before any experimentation.
(§2) The animals were first subjected to habituation sessions designed to reproduce the animals environmental conditions and handling by the experimenter during the final test.
as §1, with “an” for “successive”, “injection” for “injections”

[4] = tested on: rats, chronic migraine model induced by repeated injection of isosorbide dinitrate (ISDN); test: Prevention of migraine attacks by oral administration, chronic ISDN model, von Frey test; format: in vivo
Method: The effects of oral administration of compound 1 on mechanical cephalic allodynia were tested in rats in a chronic migraine model induced by repeated systemic injection of an NO donor, isosorbide dinitrate (ISDN). Indeed, the powerful vasodilating action of “NO donors” explains their particular propensity to trigger headache in healthy subjects and migraine attacks in migraine patients (Hansen & Olesen, Cephalalgia (2017), 37: 11-19).
The experiments were conducted on male rats (10 rats per group of the Sprague-Dawley CD strain (200-250 g, Charles River Laboratories), randomly assigned into each group before experimentation. A minimum delay of 7 days was respected before any experimentation. The experiments were conducted with the experimenter blinded.
as §2
The mechanical sensitivity of the periorbital region was measured by the von Frey test, which consists of applying a range of von Frey filaments in this region, calibrated to exert a constant force (expressed in grams) to determine the force (threshold) that leads to a head withdrawal reaction. The rats were habituated to these tests for 5 days preceding the experiment for one hour, so that repeated measurements give reproducible results. […] The rats then received successive intraperitoneal injections of ISDN (10 mg/kg) and cutaneous sensitivity was assessed by means of the von Frey test. […]
Cutaneous mechanical sensitivity was measured before and on the test day (FIG. 4, single administration of compound 1 or FIG. 6, repeated administration of compound 1) or before and on the test day (Days 1, 2, 3, 4 and 5) (FIG. 5, repeated administration of compound 1) before injection and at 30 min intervals for 4 h in the different groups of rats receiving intraperitoneal ISDN (10 mg/kg, volume of 10 mL/kg). […]

healthy volunteers = test: Adverse effects observed during phase 1b clinical study; conditions: N = 6
Method: The doses indicated in the following table were administered 4 times a day for 5 days, the daily dose varying from 800 to 4000 mg, the total quantity over five days being comprised between 4000 and 20,000 mg.

[5] = 200 mg 4 times a day for 5 days
[6] = 400 mg 4 times a day for 5 days
[7] = 600 mg 4 times a day for 5 days
[8] = 800 mg 4 times a day for 5 days
[9] = 1000 mg 4 times a day for 5 days

## CCOC(=O)OC(C)OC(=O)CNC(=O)[C@@H](CSSC[C@@H](N)CCSC)Cc1ccccc1.O=C(O)/C=C/C(=O)O (stereo partly drawn) [Compound 1, (5S,10S)-10-benzyl-16-methyl-11,14,18-trioxo-15,17,19-trioxa-2,7,8-trithia-12-azahenicosan-5-aminium fumarate]
[1]; 50 mg/kg IP, D21
  Nociceptive threshold (tail withdrawal latency time): 5.12 (4) seconds
[1]; 50 mg/kg IP, D28
  Nociceptive threshold (tail withdrawal latency time): 4.14 (5) seconds
[1]; 100 mg/kg IP, D28
  Nociceptive threshold (tail withdrawal latency time): 5.98 (5) seconds
[1]; 100 mg/kg IP, D35
  Nociceptive threshold (tail withdrawal latency time): 5.46 (5) seconds
[1]; 50 and 100 mg/kg IP (FIG. 1)
  Effect on hyperalgesia: permits reducing hyperalgesia
[2]
  Effect on cephalic cutaneous sensitivity (von Frey): considerably reduces cephalic cutaneous sensitivity
[3]
  Effect on cephalic cutaneous sensitivity (von Frey): considerably reduces cephalic cutaneous sensitivity
[4]; 50 mg/kg orally once daily for 5 days, as a function of time after ISDN, versus carrier (FIG. 6)
  Effect on cutaneous cephalic sensitivity (von Frey): significantly reduces cutaneous cephalic sensitivity
[4]; 50 mg/kg orally once on the experiment day (FIG. 4)
  Effect on cutaneous cephalic sensitivity (von Frey): had no effect on cutaneous cephalic sensitivity
[4]; 50 mg/kg orally repeatedly over 5 days, before administration of ISDN, versus carrier (FIG. 5)
  Effect on cutaneous cephalic sensitivity (von Frey): significantly reduces cutaneous cephalic sensitivity
Healthy volunteers; [5]
  Subjects with Death: 0
  Subjects with LAE (limiting adverse event): 0
  Subjects with SAE (serious adverse event): 0
  Subjects with TEAEs, (%): 16.7%
  TEAEs, E = number of adverse reactions: 3
Healthy volunteers; [6]
  Subjects with Death: 0
  Subjects with LAE (limiting adverse event): 0
  Subjects with SAE (serious adverse event): 0
  Subjects with TEAEs, (%): 83.3%
  TEAEs, E = number of adverse reactions: 12
Healthy volunteers; [7]
  Subjects with Death: 0
  Subjects with LAE (limiting adverse event): 0
  Subjects with SAE (serious adverse event): 0
  Subjects with TEAEs, (%): 66.7%
  TEAEs, E = number of adverse reactions: 7
Healthy volunteers; [8]
  Subjects with Death: 0
  Subjects with LAE (limiting adverse event): 0
  Subjects with SAE (serious adverse event): 0
  Subjects with TEAEs, (%): 100.0%
  TEAEs, E = number of adverse reactions: 10
Healthy volunteers; [9]
  Subjects with Death: 0
  Subjects with LAE (limiting adverse event): 0
  Subjects with SAE (serious adverse event): 0
  Subjects with TEAEs, (%): 66.7%
  TEAEs, E = number of adverse reactions: 15
